From PMC6797481, “Identification of an allosteric binding site on the human glycine transporter, GlyT2, for bioactive lipid analgesics” (eLife, 2019)
Where a chain is given by its changes, count along the chain named.

How the values were obtained:
GlyT2 P561S mutant = target: T1, GlyT2 P561S mutant (Homo sapiens, UniProt Q9Y345, P561S); assay: Glycine transport currents, two electrode voltage clamp, oocytes expressing GlyT2 P561S; format: cell-based; details: for IC50 / % Max. inhibition: GlyT2 P561S; for % Max. inhibition: mean ± SEM
T1 construct: expressed in transfected cells; host or cells: Xenopus laevis oocytes (cRNA injection)
T1 sequence (Q9Y345 1-797 P561S): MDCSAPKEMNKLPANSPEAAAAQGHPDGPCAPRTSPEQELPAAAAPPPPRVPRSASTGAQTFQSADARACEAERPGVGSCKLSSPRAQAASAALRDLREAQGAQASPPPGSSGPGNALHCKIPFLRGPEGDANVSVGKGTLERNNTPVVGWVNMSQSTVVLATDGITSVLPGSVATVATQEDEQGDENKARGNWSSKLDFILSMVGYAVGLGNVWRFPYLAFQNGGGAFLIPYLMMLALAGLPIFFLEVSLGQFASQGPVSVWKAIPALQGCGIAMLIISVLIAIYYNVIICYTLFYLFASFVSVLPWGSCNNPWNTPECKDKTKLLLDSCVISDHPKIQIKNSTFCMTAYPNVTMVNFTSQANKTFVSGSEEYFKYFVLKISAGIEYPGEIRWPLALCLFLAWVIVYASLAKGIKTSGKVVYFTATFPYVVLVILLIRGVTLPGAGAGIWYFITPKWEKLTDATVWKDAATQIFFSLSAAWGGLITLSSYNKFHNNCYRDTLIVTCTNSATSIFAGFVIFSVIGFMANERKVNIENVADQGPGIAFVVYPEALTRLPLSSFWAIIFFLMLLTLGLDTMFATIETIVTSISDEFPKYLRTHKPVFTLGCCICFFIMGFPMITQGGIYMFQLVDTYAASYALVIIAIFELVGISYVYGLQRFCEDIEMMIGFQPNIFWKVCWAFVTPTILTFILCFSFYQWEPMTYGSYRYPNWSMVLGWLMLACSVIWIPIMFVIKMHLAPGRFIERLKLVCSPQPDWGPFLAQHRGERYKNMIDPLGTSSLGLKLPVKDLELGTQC
Method: (§1) Glycine was first applied to establish maximal transport current.
(§2) Compounds were tested for inhibition of glycine transport on Xenopus laevis oocytes expressing mutant GlyT1 and GlyT2 transporters. n values are in brackets, with measurements taken from at least 2 batches of oocytes.

GlyT2 WT = target: T2, GlyT2 WT (Homo sapiens, UniProt Q9Y345); parameters: expressed in transfected cells; host or cells: Xenopus laevis oocytes (cRNA injection); details: cited from earlier work; for IC50 / GlyT2 % max. inhibition: WT GlyT2, previously published; for IC50: mean (95% CI); for GlyT2 % max. inhibition: mean ± SEM; for mechanism of inhibition: versus substrate glycine, ref Mostyn et al., 2019, Wiles et al., 2006
T2 sequence (Q9Y345 1-797): T1 sequence (Q9Y345 1-797 P561S) with S561P

GlyT2 V432A mutant = target: T3, GlyT2 V432A mutant (Homo sapiens, UniProt Q9Y345, V432A); assay: Glycine transport currents, two electrode voltage clamp, oocytes expressing GlyT2 V432A; format: cell-based; details: for % Max. inhibition: mean ± SEM
T3 construct: expressed in transfected cells; host or cells: Xenopus laevis oocytes (cRNA injection)
T3 sequence (Q9Y345 1-797 V432A): T1 sequence (Q9Y345 1-797 P561S) with V432A, S561P
Method: as §1, §2

[1] = GlyT2 V432A, greater than maximum concentration applied (footnote a)

Molecule | IC50 (GlyT2 P561S mutant; mean (95% CI)) [nM] | % Max. inhibition (GlyT2 P561S mutant) | IC50 (GlyT2 WT) [nM] | GlyT2 % max. inhibition (GlyT2 WT) [%] | IC50 (GlyT2 V432A mutant; GlyT2 V432A, mean (95% CI)) [nM] | % Max. inhibition (GlyT2 V432A mutant; GlyT2 V432A) | mechanism of inhibition (GlyT2 WT) | IC50 (GlyT2 V432A mutant; [1]) [nM] | % Max. inhibition (% inhibition at the highest concentration of inhibitor used) (GlyT2 V432A mutant; GlyT2 V432A, footnote b) | EC50 (GlyT2 P561S mutant; glycine transport, GlyT2 P561S (TM8)) [nM] | EC50 (GlyT2 V432A mutant; glycine transport, GlyT2 V432A (TM5)) [nM] | IC50 (GlyT2 P561S mutant; greater than maximum concentration applied (footnote a)) [nM]
oleoyl d-Lysine | 558 | 76.7 ± 8.1 (p=0.4299) % | 48.3 | 91.0 ± 1.9 |  |  |  |  |  |  |  | 
CCCCCCCC/C=C\CCCCCCCC(=O)N[C@@H](CCCCN)C(=O)O [oleoyl l-Lysine] | 69.2 | 71.5 ± 4.8 (p=0.0758) % |  | 86.8 ± 2.4 | 68.4 | 71.9 ± 1.9 (p=0.0001) % | not competitive |  |  |  |  | 
CCCCCCCC/C=C\CCCCCCCC(=O)N[C@@H](Cc1c[nH]c2ccccc12)C(=O)O [oleoyl l-Tryptophan] | 318 | 61.4 ± 4.2 (p=0.0001) % |  | 86.2 ± 3.8 |  |  |  |  |  |  |  | 
CCCCC/C=C\C/C=C\C/C=C\C/C=C\CCCC(=O)NCC(=O)O [N-arachidonyl Glycine, reference compound] |  |  | 9100 | 79.6 ± 2.1 |  | 4.2 ± 3.2 (p=0.0018) % | not competitive | > 10000 |  |  |  | 
CCCCCCCC/C=C\CCCCCCCC(=O)N[C@H](C(=O)O)C(C)C [oleoyl l-Valine] | 753 | 94.5 ± 4.7 (p=0.9462) % | 1170 | 90.9 ± 5.9 |  |  |  |  |  |  |  | 
CCCCCCCC/C=C\CCCCCCCC(=O)NCC(=O)O [N-oleoyl Glycine, reference compound] | 564 | 62.1 ± 4.8 (p=0.9242) % | 500 | 66.8 ± 2.8 |  |  |  | > 10000 | 1.9 ± 3.2^b (p=0.0001) % |  |  | 
NCC(=O)O [Glycine] |  |  |  |  |  |  |  |  |  | 15500 ± 4100 | 114000 ± 21600 | 
CCCCCCCC/C=C\CCCCCCCC(=O)N[C@@H](CC(=O)O)C(=O)O [oleoyl l-Aspartate] | 2540 | 58.2 ± 4.7 (p=0.0954) % | 865 | 76.7 ± 5.3 |  |  |  |  |  |  |  | 
CCCCCCCC/C=C\CCCCCCCC(=O)O[C@H](CC(=O)[O-])C[N+](C)(C)C [oleoyl L-Carnitine, reference compound] |  | 31.6 ± 5.2 (p=0.0001) % | 340 | 71.5 ± 5.7 |  | 6.0 ± 3.2 (p=0.0001) % |  | > 3000 |  |  |  | > 3000
